How the values were obtained:
[1] = test system: HeLa cells; experiment: Morphological changes, HeLa; assay type: cell-based, human; conditions: P3 50 μM, 1 hour
Procedure: FIGS. 12A-B Morphological changes (20×) in HeLa cells (FIG. 12Aa-d) and HSC3 cells (FIG. 12Ba-d) with no treatment (a) or treated with Polygodial 80 μM (b), P10 4 μM (c), and P3 50 μM (d) for 1 hour. Differences in morphological changes between treatments indicate potentially unique mechanisms-of-action between polygodial and P10 (isomer), and P3 (novel analog).

[2] = test system: uterine sarcoma MES-SA cells; experiment: MTT antiproliferative assay, MES-SA; assay type: cell-based, human; conditions: 48 h treatment, relative to DMSO control, read-out: GI50 in vitro values, MES-SA
Procedure: Human mammary carcinoma MCF-7 (ATCC HTB22) cells were cultured in RPMI supplemented with 10% FBS. The U87 cells (ATCC HTB-14) were cultured in DMEM culture medium, while the A549 cells (DSMZ ACC107) were cultured in RPMI culture medium supplemented with 10% heat-inactivated FBS. The GBM Hs683 (ATCC HTB-138) cells were cultivated in DMEM supplemented with 10% FBS. The human uterine sarcoma MES-SA (ATCC CRL1966) and MES-SA/D×5 cells were cultured in RPMI-1640 medium supplemented with 10% FBS with MES SA/D×5 maintained in the presence of 500 nM Doxorubicin (Sigma). SKMEL-28 cells (ATCC HTB72) and U373 GBM cells (ECACC 08061901) were cultured in RPMI culture medium supplemented with 10% heat-inactivated FBS. Cell culture media were supplemented with 4 mM glutamine (Lonza code BE17-605E), 100 μg/mL gentamicin (Lonza code 17-5182), and penicillin-streptomycin (200 units/ml and 200 μg/ml) (Lonza code 17-602E). The MDA-MB-231 (ATCC HTB-26) epithelial mammary adenocarcinoma cells were cultured in Eagle's minimum essential medium (EMEM; Invitrogen) containing 5% fetal calf serum (FCS, Cambrex), 2 mM L-glutamine (Invitrogen), 0.06% HEPES (Invitrogen) and penicillin (50 IU/ml)/streptomycin (50 µg/ml; Invitrogen) at 37° C. in a humidified atmosphere of 5% CO2 in air. Transformed mouse NPCs were cultured in suspension under neurosphere conditions at 37° C. in a humidified atmosphere of […] and 5% CO2 in DMEM F12 (Invitrogen 11320-074) supplemented with 1×B27 supplement (Invitrogen 17504-044), 5% penicillin-streptomycin (Biochrom 10378-017), 10 ng/ml EGF (R&D systems 236-EG), 10 ng/ml FGF (PeproTech 100-18B).
Antiproliferative properties of the synthesized compounds were evaluated by the MTT assay. All compounds were dissolved in DMSO at a concentration of either 100 μM or 50 μM prior to cell treatment. The cells were trypsinized and seeded at various cell concentrations depending on the cell type. […]

[3] = test system: transgenic mouse glioma cells (neurosphere cultures); experiment: CytoTox-Fluor cytotoxicity assay, neurosphere glioma cultures; assay type: cell-based; conditions: cdkn2a deletion with PDGFB or EGFRvIII; 24 h; 5 at 20 μM, CBD at 10 μM
Procedure: FIGS. 5A-D. Activity of 5 against neurosphere glioma cell cultures with clinically relevant mutations. Transgenic mouse glioma cells of defined molecular subtypes were generated by forced expression of EGFRvIII (classical GBM subtype), PDGFB (proneural GBM subtype) in cdkn2a-deficient and cdkn2a/TRPV1-doubly deficient subventricular neural precursors (NPC). These primary cell cultures were treated for 24 hours either with 10 μM CBD versus a corresponding vehicle-control (containing 0.01% DMSO) or 20 μM of 5 versus vehicle control (0.02% DMSO). Cytotoxicity was measured 24 h after incubation and base-line cytotoxicity levels in the controls were arbitrarily defined as 1. Read-outs from treated cells were normalized to their respective vehicle controls and -fold change of relative cytotoxicity was calculated. Each bar represents the mean±SD from two independent experiments; statistical significance, as determined by unpaired t-tests, is indicated: *** represents p<0.001; ** p<0.005; * p=0.0257; ns not significant).
Human mammary carcinoma MCF-7 (ATCC HTB22) cells were cultured in RPMI supplemented with 10% FBS. […]
The CytoTox-Fluor cytotoxicity assay from Promega has been used according to manufacturer's instructions. […] After 2 hours of incubation at 37° C., the fluorescence intensity was measured using the Tecan InfiniteF200 fluorescence plate reader (485 nm Ex/520 nm Em). […]

COC(=O)/C=C/C1=CC[C@H]2C(C)(C)CCC[C@]2(C)[C@H]1C=O [Compound 5]
morphological changes, HeLa [1]: apoptotic figures | GI50 [2]: 40 µM | cytotoxicity against GBM neurosphere cultures [3]: effectiveness similar to that of cannabidiol (CBD)

From US20180237362A1, “NOVEL POLYGODIAL ANALOGS FOR THE TREATMENT OF CANCER AND OTHER PROLIFERATIVE DISEASES” (THE BOARD OF REGENTS OF THE UNIVERSITY OF TAXAS SYSTEM, priority 2015, published 2018)
